Measured values from the supplement of paper PMC10307832.

These cell lines were tested with COc1cc2nc(N3CCCN(C)CC3)nc(NC3CCN(Cc4ccccc4)CC3)c2cc1OC + C[C@]1(O)C[C@@H](c2nc(-c3ccc4ccc(-c5ccccc5)nc4c3)c3c(N)nccn32)C1 [Linsitinib] (partner 1 µM) (assay: relative viability (nuclei count vs DMSO), 5 days (fraction); higher = more cells survive). Conditions: first compound 0.2 µM.
Procedure, shortened: (§1)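 Lung cancer cell lines in 1536-well plates were dosed by pin tool the day after seeding, either with one drug alone or with a fixed anchor-drug dose plus five library-drug doses (not always all listed) in √10 steps. After 5 days, cells were fixed and their nuclei stained in one step (final 0.05% Triton X-100, 1% formaldehyde, 1 ug/ml Hoechst), then counted on 4× images. Relative viability is the nuclei count in treated wells divided by that in vehicle wells. Values are medians of duplicate plates.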

Row | Cell Line | relative viability
1 | EMC-BAC-2 | 0.799
2 | NCI-H2085 | 0.9
3 | Calu-6 | 0.881
4 | HCC-366 | 0.68
5 | NCI-H1666 | 0.866
6 | NCI-H596 | 1.12
7 | LK-2 | 0.472
8 | NCI-H2087 | 0.908
9 | SK-MES-1 | 1
10 | H3255 | 0.983
11 | COR-L23 | 0.966
12 | COR-L 105 | 1.09
13 | IA-LM | 0.724
14 | LOU-NH91 | 0.93
15 | NCI-H2405 | 0.934
16 | HOP-62 | 0.878
17 | HCC-44 | 0.688
18 | A549 | 0.648
19 | LU99A | 0.628
20 | BEN | 0.914
21 | HARA | 0.798
22 | HCC-78 | 0.427
23 | NCI-H322M | 0.826
24 | LCLC-97TM1 | 0.176
25 | NCI-H441 | 0.527
26 | NCI-H1395 | 1.16
27 | NCI-H1299 | 1.01
28 | NCI-H1793 | 0.912

Same assay, conditions: first compound 0.6325 µM

Row | Cell Line | relative viability
29 | NCI-H727 | 0.277
30 | EBC-1 | 0.879
31 | NCI-H1703 | 0.398
32 | NCI-H1993 | 0.723
33 | SW 1573 | 0.806
34 | NCI-H838 | 0.936
35 | LCLC-103H | 1.13
36 | NCI-H520 | 0.931
37 | NCI-H2126 | 0.707
38 | EMC-BAC-2 | 0.815
39 | NCI-H2085 | 0.917
40 | Calu-6 | 0.903
41 | HCC-366 | 0.642
42 | NCI-H1666 | 0.919
43 | NCI-H596 | 1.02
44 | LK-2 | 0.539
45 | NCI-H2087 | 0.706
46 | SK-MES-1 | 1

Row | Cell Line | relative viability
47 | H3255 | 0.992
48 | COR-L23 | 1.02
49 | COR-L 105 | 0.888
50 | IA-LM | 0.5
51 | LOU-NH91 | 0.978
52 | NCI-H2405 | 0.975
53 | HOP-62 | 0.992
54 | HCC-44 | 0.549
55 | A549 | 0.549
56 | LU99A | 0.537
57 | BEN | 0.949
58 | HARA | 0.889
59 | HCC-78 | 0.416
60 | NCI-H322M | 0.887
61 | NCI-H1395 | 1.13
62 | NCI-H1299 | 0.939
63 | NCI-H1793 | 1.02

Same assay, conditions: first compound 2 µM

Row | Cell Line | relative viability
64 | NCI-H727 | 0.369
65 | EBC-1 | 1.09
66 | NCI-H1703 | 0.533
67 | NCI-H1993 | 0.676
68 | SW 1573 | 0.768
69 | NCI-H838 | 1.11
70 | LCLC-103H | 1.28
71 | NCI-H520 | 1.1
72 | NCI-H2126 | 0.724
73 | EMC-BAC-2 | 0.903
74 | NCI-H2085 | 0.956
75 | Calu-6 | 1.02
76 | HCC-366 | 0.694
77 | NCI-H1666 | 0.783
78 | NCI-H596 | 1.17
79 | LK-2 | 0.624
80 | NCI-H2087 | 1.05
81 | SK-MES-1 | 1.08
82 | H3255 | 1.04

Row | Cell Line | relative viability
83 | COR-L23 | 1.05
84 | COR-L 105 | 0.833
85 | IA-LM | 0.661
86 | LOU-NH91 | 0.669
87 | NCI-H2405 | 0.979
88 | HOP-62 | 1.03
89 | HCC-44 | 0.786
90 | A549 | 0.713
91 | LU99A | 0.552
92 | BEN | 1.04
93 | HARA | 1
94 | HCC-78 | 0.482
95 | NCI-H322M | 0.939
96 | LCLC-97TM1 | 0.159
97 | NCI-H441 | 0.515
98 | NCI-H1395 | 0.912
99 | NCI-H1299 | 1.1
100 | NCI-H1793 | 1.21

Same assay, conditions: first compound 6.325 µM

Row | Cell Line | relative viability
101 | NCI-H727 | 0.221
102 | EBC-1 | 0.753
103 | NCI-H1703 | 0.69
104 | NCI-H1993 | 0.765
105 | SW 1573 | 0.758
106 | NCI-H838 | 0.85
107 | LCLC-103H | 1.04
108 | NCI-H520 | 0.747
109 | NCI-H2126 | 0.708
110 | EMC-BAC-2 | 0.787
111 | NCI-H2085 | 0.84
112 | Calu-6 | 0.962
113 | HCC-366 | 0.586
114 | NCI-H1666 | 0.675
115 | NCI-H596 | 0.992
116 | LK-2 | 0.644
117 | NCI-H2087 | 0.899
118 | SK-MES-1 | 1.01
119 | H3255 | 0.998

Row | Cell Line | relative viability
120 | COR-L23 | 1
121 | COR-L 105 | 0.628
122 | IA-LM | 0.458
123 | LOU-NH91 | 0.979
124 | NCI-H2405 | 0.809
125 | HOP-62 | 0.7
126 | HCC-44 | 0.695
127 | A549 | 0.684
128 | LU99A | 0.549
129 | BEN | 1.01
130 | HARA | 0.948
131 | HCC-78 | 0.348
132 | NCI-H322M | 0.901
133 | LCLC-97TM1 | 0.195
134 | NCI-H441 | 0.553
135 | NCI-H1395 | 1.12
136 | NCI-H1299 | 0.97
137 | NCI-H1793 | 0.959

Each cell line was assayed with Cc1cc([C@@H](C)Nc2ccccc2C(=O)O)c2nc(N3CCOCC3)cc(=O)n2c1 [AZD6482] + COc1cccc2cc(-c3nc([C@H]4CC[C@H](C(=O)O)CC4)n4ncnc(N)c34)[nH]c12 [OSI-027] (partner 0.5 µM) in the same assay as above. Conditions: first compound 0.08 µM.
Procedure, shortened: as §1

Row | Cell Line | relative viability
138 | NCI-H2342 | 0.542
139 | NCI-H1623 | 0.392
140 | NCI-H727 | 0.457
141 | NCI-H1650 | 0.536
142 | NCI-H1993 | 0.502
143 | SW 1573 | 0.662
144 | NCI-H838 | 0.334
145 | LCLC-103H | 0.414
146 | NCI-H520 | 0.214
147 | NCI-H2126 | 0.647
148 | EMC-BAC-2 | 0.394
149 | NCI-H2085 | 0.523
150 | HCC-366 | 1.01
151 | NCI-H1666 | 0.684
152 | NCI-H596 | 0.676
153 | LK-2 | 0.222
154 | NCI-H2087 | 0.495
155 | NCI-H1648 | 0.297
156 | SK-MES-1 | 0.502
157 | H3255 | 0.618
158 | COR-L23 | 0.552
